Data published in US9549911B2, “Ginger metabolites and uses thereof” (North Carolina A&T State University, priority 2012, dated 2017).

Assays:
[1] = system: HCT-116, HT-29, H-1299, and CL-13 cancer cell lines; assay: Metabolism of [6]-shogaol in cancer cells; format: in vitro ADME; details: 10 μM, HCT-116, HT-29, H-1299, CL-13, up to 24 h
Protocol: Cells (1.0×10^6) were plated in six-well culture plates and were allowed to attach for 24 h at 37° C. in 5% CO2 incubator. [6]-Shogaol [in dimethyl sulfoxide (DMSO)] was added to McCoy's 5A medium (containing 10% fetal bovine serum, 1% penicillin/streptomycin, and 1% glutamine) to reach a final concentration of (10 μM) and was incubated with different cancer cell lines (HCT-116, HT-29, H-1299, and CL-13). At different time points (0, 30 min, 1, 2, 4, 6, 8, and 24 h), 190-μl samples of supernatant were taken and transferred to vials containing (10 μl) of 0.2% ascorbic acid to stabilize [6]-shogaol and its metabolites. The metabolites were extracted from media by addition of equal volume of acetonitrile and centrifugation, in which the supernatant was harvested. The samples were then diluted 5-fold in acetonitrile and were analyzed by HPLC ECD.

[2] = system: HCT-116 human colon cancer cells; assay: MTT growth inhibition of human cancer cells, 24 h (Part 1); format: cell-based; details: HCT-116, 24 h, 0 to 80 μM
Protocol: (§1) The reading reflected the number of viable cells and was expressed as a percentage of viable cells in the control. Both HCT-116 and H-1299 cells were cultured in McCoy's 5A medium. All of the above media were supplemented with 10% fetal bovine serum, 1% penicillin/streptomycin, and 1% glutamine, and the cells were kept in a 37° C. incubator with 95% humidity and 5% CO2.

[3] = system: H-1299 human lung cancer cells; assay: as above; format: cell-based; details: H-1299, 24 h, 0 to 80 μM
Protocol: as §1

HCT-116 cells = assay: Measurement of reactive oxygen species (DCFH-DA); format: cell-based, human; details: HCT-116, 40 μM, after two hours
Excerpt: The assay employed the cell-permeable fluorogenic probe 2′,7′-dichlorodihydrofluorescin diacetate [DCFH-DA] (Sigma Aldrich, St. […] In brief, DCFH-DA is diffused into cells and is deacetylated by cellular esterases to non-fluorescent 2′,7′-dichlorodihydrofluorescin (DCFH), which is rapidly oxidized to highly fluorescent 2′,7′-dichlorodihydrofluorescein (DCF) by intracellular hydrogen peroxide, or other low molecular weight peroxides. Measured fluorescence intensity is thus proportional to the amount of such peroxides in the cell at a given time. Human colon cancer cells HCT-116 or HT-29 were seeded in 96-well black-sided, clear-bottomed culture plates, with 5000 cells/well and were allowed to adhere for 24 hours in a 37° C. incubator with 5% CO2. […] After desired incubation times of 0, 2, 4, 8, or 24 hours, media and test compounds were aspirated. Cells were washed three times with 200 μL PBS before addition of 100 μL 1 mM DCF-DA. The fluorogenic probe permeated cell membranes and was processed to DCF for one hour at 37° C. After incubation, plates were immediately placed in a Biotek microplate reader to measure fluorescence at wavelengths of 485 (excitation) and 528 (emission). Raw values were normalized to DMSO control for each time point and are presented as fold induction versus 0 hour time point (n=3).

H-1299 cells = assay: TUNEL apoptosis assay (Part 2); format: cell-based, human; details: H-1299, 20 or 40 μM, 24 hours

| SMILES | metabolism in cancer cell lines [1] | IC50 [2] [µM] | IC50 [3] [µM] | ROS induction (HCT-116 cells) | induction of apoptosis (TUNEL) versus DMSO (H-1299 cells) |
| --- | --- | --- | --- | --- | --- |
| CCCCC/C=C/C(=O)CCc1ccc(O)c(OC)c1 [[6]-shogaol, reference compound] | extensively metabolized | 18.7 | 16.9 |  |  |
| CCCCCC(CC(=O)CCc1ccc(O)c(OC)c1)SC[C@H](N)C(=O)O (some centres unmarked) [M2, 5-cysteinyl-[6]-shogaol] |  |  |  | greater than 2 fold | Apoptosis was observed |
